Measurements from ChEMBL document CHEMBL3244291, “Synthesis and antiinflammatory activity of 6-oxo-1-(beta-D-ribofuranosyl)nocotinic acid and related derivatives” (J Med Chem, 1978).
Activity calls are given as the source filed them. The rule behind the calls is not given here.

What was measured:
[1] = test system: Rattus norvegicus; experiment: Antiinflammatory activity in Wistar rat mycobacterial adjuvant-induced arthritis model assessed as inhibition of swelling at 30 mg/kg/day, po measured on day 14 relative to control; type: functional; conditions: 336 h
[2] = test system: Rattus norvegicus; experiment: Antiinflammatory activity in Wistar rat mycobacterial adjuvant-induced arthritis model assessed as inhibition of swelling at 30 mg/kg/day, po measured on day 3 relative to control; type: functional; conditions: 72 h
[3] = test system: Rattus norvegicus; experiment: Toxicity in Wistar rat mycobacterial adjuvant-induced arthritis model assessed as increase in body weight at 30 mg/kg/day, po after 14 days (reference value: 19 g); type: organism-based; set-up: route oral; conditions: in vivo, 336 h
[4] = test system: Rattus norvegicus; experiment: Antiinflammatory activity in Wistar rat mycobacterial adjuvant-induced arthritis model assessed as suppression of secondary lesions at 30 mg/kg/day, po measured on day 14; type: functional, organism-based

Compound | inhibition in vivo at 30 mg/kg/day [1] [%] | inhibition in vivo at 30 mg/kg/day [2] [%] | Activity [3] [g] | Activity [4]
COc1ccc2cc([C@H](C)C(=O)O)ccc2c1 [NAPROXEN] | 65 |  |  | 
O=C(O)c1ccc(=O)n([C@@H]2O[C@H](CO)[C@@H](O)[C@H]2O)c1 | 37 | 21 | 22 | inactive
